The text below walks through data of article PMC11923649, “Novel C-2 Aromatic Heterocycle-Substituted Triterpenoids Inhibit Hedgehog Signaling in GLI1 Overexpression Cancer Cells” (ACS Omega, 2025).

One data set relates to MRC-5 lung fibroblasts. Briefly: MTS cytotoxicity assay, 72 h, MRC-5 fibroblasts. It counts as cell-based, human. As to conditions: Homo sapiens, MRC5, 72 h, normal fibroblasts. The gist of the method:
(§1)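 IC50 values come from a tetrazolium (MTS) read-out at 490 nm taken after continuous 72 h exposure to a twofold dilution series from 50 down to 0.0975 μmol/L, with compound added one day after seeding.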

Data set [1] deals with K562 (chronic myelogenous leukemia). Briefly: MTS cytotoxicity assay, 72 h, K562. To be noted: Homo sapiens, Table 1. In kind it is cell-based. In outline:
as §1
In general terms: Formazan colour is commonly taken as a measure of viable cells.

The test system of a further data set is K562-TAX. Briefly: MTS cytotoxicity assay, 72 h, K562-TAX. It counts as cell-based.
A further data set deals with CCRF-CEM. Briefly: MTS cytotoxicity assay, 72 h, CCRF-CEM. It counts as cell-based. To be noted: Table 1; for IC50: Homo sapiens, CCRF-CEM, 72 h, MTS; for SI (selectivity index): IC50 of CCRF-CEM line vs average of both fibroblasts (BJ and MRC-5). In outline:
as §1

Data set [2] concerns MDR1. Briefly: MDCK-MDR1 permeability assay. To be noted: dog, MDCK-MDR1; B–A / A–B. It counts as in vitro ADME. From the text: (§2) The Parallel Artificial Membrane Permeability Assay (PAMPA) has emerged as a primary screen for determining passive transcellular permeability. […] The Caco-2 and MDCK-MDR1 permeability assays are established models of intestinal[37] and blood-brain barriers, respectively.[38]

For the next data set, the system named is MDCK-MDR1 monolayer. Briefly: MDCK-MDR1 permeability assay. In kind it is in vitro ADME.
Source text: as §2

Data set [3] can be described thus: MDCK-MDR1 permeability assay. In kind it is in vitro ADME. As to conditions: dog, MDCK-MDR1; for Papp A→B: cm/s, read-out: MDCK-MDR1 Papp (×10^−6).
Source text: as §2

For data set [4], the system named is MDR1. Briefly: Caco-2 permeability assay. It counts as in vitro ADME. As to conditions: human, Caco-2; B–A / A–B.
Source text: as §2
A general note: Passage across Caco-2 layers is used to estimate intestinal permeability.

The test system of the next data set is Caco-2 monolayer. Briefly: Caco-2 permeability assay. It counts as in vitro ADME.
Source text: as §2

A short description of data set [5]: Caco-2 permeability assay. In kind it is in vitro ADME. To be noted: human, Caco-2; for Papp A→B: cm/s, read-out: Caco-2 Papp (×10^−6).
Source text: as §2

Another data set has as its system DU-145 (prostate cancer). Briefly: MTS cytotoxicity assay, 72 h, DU-145. It counts as cell-based, human. To be noted: Homo sapiens, DU-145, 72 h, Table 1. In outline: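 DU145 cells, grown in RPMI 1640 plus 10% FBS, are plated at 15,000 cells/mL and treated the following day with a 50–0.0975 μmol/L twofold range. After MTS/phenazine methosulfate for 1–4 h, A490 is measured and IC50 determined.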

As for `C=C(C)[C@@H]1CC[C@]2(C(=O)O)CC[C@]3(C)C(CCC4[C@@]5(C)C=C(c6ccco6)C(=O)C(C)(C)C5CC[C@]43C)C12` (some centres unmarked) [Compound 11a, 2-(Furan-2-yl)-3-oxolupa-1,20(29)-dien-28-oic acid], the IC50 – broadly, the concentration that gives 50% inhibition – in the data set with MRC-5 lung fibroblasts (Table 1) was 27 µM; with MRC-5 lung fibroblasts (full Table S1), 26.8 µM; in data set [1], 6.3 µM; in the data set on K562-TAX (Table 1), 14 µM; with K562-TAX (full Table S1), 13.7 µM; in the data set on CCRF-CEM, 8.7 µM. This molecule also registered an IC50 with DU-145 (prostate cancer) of 7.9 µM. The “SI (selectivity index)” value in the data set with CCRF-CEM was 3.8. For the same molecule, the efflux ratio (in general, a quotient of directional permeabilities that is used to spot active efflux) with MDR1 [2] stood at 1.53; in the data set on MDR1 [4], 2.33. Further, the “MDCK-MDR1 Active efflux” value in the data set with MDCK-MDR1 monolayer is “No (less than or very close to the limit of active and passive efflux (≤2))”. For the same molecule, the recovery in data set [3] was determined as 90.4%; in [5] it was 68.5%. Moreover, the Papp A→B in [3] was found to be 9.15 ×10⁻⁶ cm/s; in [5], 0.44 ×10⁻⁶ cm/s. Further, the “Caco-2 Active efflux” value with Caco-2 monolayer is “Yes”.
In the case of `C=C(C)[C@@H]1CC[C@]2(C(=O)O)CC[C@]3(C)C(CCC4[C@@]5(C)C=C(c6ccoc6)C(=O)C(C)(C)C5CC[C@]43C)C12` (some centres unmarked) [Compound 11b, 2-(Furan-3-yl)-3-oxolupa-1,20(29)-dien-28-oic acid], the half-inhibitory concentration (IC50) in the data set with MRC-5 lung fibroblasts (Table 1) worked out at 24 µM; with MRC-5 lung fibroblasts (full Table S1) it was 23.9 µM; in data set [1] it was 9.6 µM; in the data set on K562-TAX (Table 1) it was 16 µM; in the data set with K562-TAX (full Table S1), 15.8 µM; in the data set with CCRF-CEM, 6 µM. The same molecule displayed an IC50 in the data set on DU-145 (prostate cancer) of 5.7 µM. Moreover, the “SI (selectivity index)” value with CCRF-CEM came to 5. Besides, the efflux ratio in the data set with MDR1 [2] came out at 2.46; in the data set with MDR1 [4], 1.77. Also, the “MDCK-MDR1 Active efflux” value in the data set on MDCK-MDR1 monolayer was “Yes”. For the same molecule, the figures for the recovery in data set [3] and in [5] were 94.7% and 58.2%, respectively. Further, the figures for the Papp A→B in data set [3] and in data set [5] were 1.85 ×10⁻⁶ cm/s and 1.07 ×10⁻⁶ cm/s, respectively. Also, the “Caco-2 Active efflux” value in the data set on Caco-2 monolayer is “No (less than or very close to the limit of active and passive efflux (≤2))”.
